From patent US20120270915A1, “FATTY ACID AMIDE HYDROLASE INHIHIBITORS FOR TREATING PAIN” (priority 2011, published 2012)

Assays:
FAAH Rat brain = target: T1, FAAH Rat brain (Rattus norvegicus, UniProt P97612); test: FAAH inhibitory activity, rat brain membranes, [14C]-AEA hydrolysis; type: biochemical; conditions: Table 2; rat brain; read-out: FAAH Rat brain IC50
T1 construct: from tissue; host or cells: rat brain membranes
T1 sequence (P97612 1-579): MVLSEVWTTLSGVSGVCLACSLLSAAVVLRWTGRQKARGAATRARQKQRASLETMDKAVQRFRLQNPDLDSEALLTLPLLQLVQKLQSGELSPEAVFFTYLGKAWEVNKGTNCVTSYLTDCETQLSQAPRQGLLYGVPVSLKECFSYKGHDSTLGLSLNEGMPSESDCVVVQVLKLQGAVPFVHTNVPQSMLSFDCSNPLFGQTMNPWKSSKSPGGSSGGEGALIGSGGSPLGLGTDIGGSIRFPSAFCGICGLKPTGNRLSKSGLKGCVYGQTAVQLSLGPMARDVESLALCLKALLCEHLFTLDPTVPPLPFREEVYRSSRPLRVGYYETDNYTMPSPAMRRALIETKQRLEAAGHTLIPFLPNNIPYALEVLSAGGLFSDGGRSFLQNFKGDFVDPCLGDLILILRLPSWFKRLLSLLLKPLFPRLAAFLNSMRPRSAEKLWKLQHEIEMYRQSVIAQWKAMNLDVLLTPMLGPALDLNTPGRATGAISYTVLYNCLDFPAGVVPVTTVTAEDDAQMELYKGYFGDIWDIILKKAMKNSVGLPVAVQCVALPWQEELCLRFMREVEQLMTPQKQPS
Description: The compounds of Examples 12, and 19 are tested for FAAH inhibitory activity as follows:
Method 1: Membranes obtained from rat brain are incubated with 2 mM [^14C]-AEA, 30 min at 37° C. at pH values ranging from 9.00 to 10.00 in presence and absence of tested compounds in a final volume of […]. Incubation is stopped by extraction with CHCl3/MeOH (1:1) and the aqueous phases containing [^14C]-Ethanolamine produced by [^14C]-AEA hydrolysis are measured.

FP receptor = FP receptor (Homo sapiens, UniProt P43088); test: Prostanoid receptor antagonism (FLIPR), FP; type: cell-based; conditions: Table 2
DP receptor = target: T2, DP receptor (Homo sapiens, UniProt Q13258); test: Prostanoid receptor antagonism (FLIPR), DP; type: cell-based; conditions: Table 2
T2 sequence (Q13258 1-359): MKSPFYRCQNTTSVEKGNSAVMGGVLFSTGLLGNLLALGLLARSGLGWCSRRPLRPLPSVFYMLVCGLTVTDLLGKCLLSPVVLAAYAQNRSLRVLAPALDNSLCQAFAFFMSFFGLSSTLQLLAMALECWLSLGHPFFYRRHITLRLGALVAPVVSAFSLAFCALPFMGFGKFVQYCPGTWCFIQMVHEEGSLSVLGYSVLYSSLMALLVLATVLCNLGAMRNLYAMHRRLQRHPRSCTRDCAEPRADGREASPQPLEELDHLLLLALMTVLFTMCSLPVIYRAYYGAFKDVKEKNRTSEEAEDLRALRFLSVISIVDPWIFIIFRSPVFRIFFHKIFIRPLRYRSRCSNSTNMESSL

EP1 receptor = target: T3, EP1 receptor (Homo sapiens, UniProt P34995); test: Prostanoid receptor antagonism (FLIPR), EP1; type: cell-based; conditions: Table 2
T3 sequence (P34995 1-402): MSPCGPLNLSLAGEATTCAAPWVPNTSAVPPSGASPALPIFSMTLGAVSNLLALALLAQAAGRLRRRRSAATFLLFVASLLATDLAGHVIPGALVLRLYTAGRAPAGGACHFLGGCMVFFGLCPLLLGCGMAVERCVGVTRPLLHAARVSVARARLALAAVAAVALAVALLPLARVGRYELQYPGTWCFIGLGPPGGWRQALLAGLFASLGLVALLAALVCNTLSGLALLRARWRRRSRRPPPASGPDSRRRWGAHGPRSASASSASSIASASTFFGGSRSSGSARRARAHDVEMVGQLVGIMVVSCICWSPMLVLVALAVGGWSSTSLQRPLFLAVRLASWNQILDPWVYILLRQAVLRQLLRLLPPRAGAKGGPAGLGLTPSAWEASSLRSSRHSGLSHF

EP2 receptor = EP2 receptor (Homo sapiens, UniProt P43116); test: Prostanoid receptor antagonism (FLIPR), EP2; type: cell-based; conditions: Table 2, NA = inactive
EP3 receptor = target: T4, EP3 receptor (Homo sapiens, UniProt P43115); test: Prostanoid receptor antagonism (FLIPR), EP3; type: cell-based; conditions: Table 2
T4 sequence (P43115 1-390): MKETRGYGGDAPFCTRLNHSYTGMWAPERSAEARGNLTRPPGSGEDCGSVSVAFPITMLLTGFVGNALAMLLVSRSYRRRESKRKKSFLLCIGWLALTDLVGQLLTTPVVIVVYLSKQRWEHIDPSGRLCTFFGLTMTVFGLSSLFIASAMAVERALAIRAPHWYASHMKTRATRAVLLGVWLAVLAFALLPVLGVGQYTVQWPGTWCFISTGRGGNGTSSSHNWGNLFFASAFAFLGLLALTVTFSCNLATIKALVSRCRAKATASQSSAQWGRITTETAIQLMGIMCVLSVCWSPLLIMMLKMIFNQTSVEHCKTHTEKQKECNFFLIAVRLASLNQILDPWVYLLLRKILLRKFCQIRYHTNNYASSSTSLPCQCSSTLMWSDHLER

EP4 receptor = EP4 receptor (Homo sapiens, UniProt P35408); test: Prostanoid receptor antagonism (FLIPR), EP4; type: cell-based; conditions: Table 2
IP receptor = IP receptor (Homo sapiens, UniProt P43119); test: Prostanoid receptor antagonism (FLIPR), IP; type: cell-based; conditions: Table 2, NA = inactive
TP receptor = target: T5, TP receptor (Homo sapiens, UniProt P21731); test: Prostanoid receptor antagonism (FLIPR), TP; type: cell-based; conditions: Table 2
T5 sequence (P21731 1-343): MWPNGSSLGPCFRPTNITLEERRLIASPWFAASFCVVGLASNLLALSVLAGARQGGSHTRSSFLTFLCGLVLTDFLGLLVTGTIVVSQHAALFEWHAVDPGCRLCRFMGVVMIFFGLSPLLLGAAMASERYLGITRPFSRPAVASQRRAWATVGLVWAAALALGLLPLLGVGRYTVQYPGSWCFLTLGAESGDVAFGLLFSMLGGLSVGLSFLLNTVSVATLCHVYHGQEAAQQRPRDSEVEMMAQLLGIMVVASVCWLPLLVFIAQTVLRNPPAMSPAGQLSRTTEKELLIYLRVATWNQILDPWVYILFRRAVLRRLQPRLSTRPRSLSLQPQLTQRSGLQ

IP receptor, sequence (P43119 whole entry): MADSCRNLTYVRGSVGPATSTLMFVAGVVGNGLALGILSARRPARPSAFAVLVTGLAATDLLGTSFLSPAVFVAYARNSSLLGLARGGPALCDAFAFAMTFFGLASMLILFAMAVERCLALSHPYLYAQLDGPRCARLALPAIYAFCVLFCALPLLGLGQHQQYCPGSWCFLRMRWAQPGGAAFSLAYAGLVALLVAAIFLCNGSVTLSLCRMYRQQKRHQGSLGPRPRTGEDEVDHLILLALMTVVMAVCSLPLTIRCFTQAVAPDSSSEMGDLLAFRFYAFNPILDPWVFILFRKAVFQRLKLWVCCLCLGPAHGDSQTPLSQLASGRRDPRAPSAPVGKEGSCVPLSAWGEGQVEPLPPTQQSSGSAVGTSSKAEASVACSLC
EP4 receptor, sequence (P35408 whole entry): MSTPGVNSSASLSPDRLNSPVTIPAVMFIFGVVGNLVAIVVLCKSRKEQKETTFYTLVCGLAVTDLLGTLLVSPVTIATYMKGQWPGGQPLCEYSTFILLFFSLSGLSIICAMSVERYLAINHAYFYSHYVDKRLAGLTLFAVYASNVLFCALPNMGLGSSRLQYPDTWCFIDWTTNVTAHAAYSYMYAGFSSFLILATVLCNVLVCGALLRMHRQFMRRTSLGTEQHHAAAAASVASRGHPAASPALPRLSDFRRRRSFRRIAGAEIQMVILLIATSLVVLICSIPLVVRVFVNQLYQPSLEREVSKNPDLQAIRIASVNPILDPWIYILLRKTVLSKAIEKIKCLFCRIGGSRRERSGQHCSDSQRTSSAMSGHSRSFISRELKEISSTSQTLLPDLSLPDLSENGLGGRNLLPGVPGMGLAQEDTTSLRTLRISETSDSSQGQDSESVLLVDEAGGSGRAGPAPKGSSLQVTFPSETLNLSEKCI
EP2 receptor, sequence (P43116 whole entry): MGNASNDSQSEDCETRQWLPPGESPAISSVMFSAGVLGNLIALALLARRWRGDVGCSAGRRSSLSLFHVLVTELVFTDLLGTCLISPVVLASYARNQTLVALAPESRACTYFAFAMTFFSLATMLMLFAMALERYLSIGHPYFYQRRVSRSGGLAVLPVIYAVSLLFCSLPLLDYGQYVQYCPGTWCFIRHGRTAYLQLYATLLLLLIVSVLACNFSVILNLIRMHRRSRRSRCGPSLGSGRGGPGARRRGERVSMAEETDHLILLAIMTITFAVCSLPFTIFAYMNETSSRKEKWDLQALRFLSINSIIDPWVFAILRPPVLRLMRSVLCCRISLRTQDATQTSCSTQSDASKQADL
FP receptor, sequence (P43088 whole entry): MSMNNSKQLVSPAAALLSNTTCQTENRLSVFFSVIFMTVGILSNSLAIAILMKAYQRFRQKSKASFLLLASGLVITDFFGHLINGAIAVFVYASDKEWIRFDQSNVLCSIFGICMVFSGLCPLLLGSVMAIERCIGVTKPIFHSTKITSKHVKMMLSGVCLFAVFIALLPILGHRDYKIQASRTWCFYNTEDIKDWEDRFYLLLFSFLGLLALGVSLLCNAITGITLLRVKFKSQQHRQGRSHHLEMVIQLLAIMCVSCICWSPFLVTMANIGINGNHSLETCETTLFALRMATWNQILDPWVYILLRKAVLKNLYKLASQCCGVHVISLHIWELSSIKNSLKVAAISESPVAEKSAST

IC50 (FAAH Rat brain): 240 nM | Kb (FP receptor): 1600 nM | Kb (DP receptor): 40 nM | Kb (EP1 receptor): 180 nM | Kb (EP2 receptor): 1800 nM | Kb (EP3 receptor): 910 nM | Kb (EP4 receptor): 160 nM | Kb (IP receptor): 6900 nM | Kb (TP receptor): 11 nM
SMILES: CCS(=O)(=O)NC(=O)CCc1ccc(OC)cc1CN1CCC[C@H]1c1nc(C(=O)NCCCCC2CCCCC2)co1 [Example 12l, (S)—N-(4-cyclohexylbutyl)-2-(1-(5-methoxy-2-(3-oxo-3-(ethylsulfonamido)propyl)benzyl)pyrrolidin-2-yl)oxazole-4-carboxamide]
